Measurements as given in BigSolDB 2.1.

Nc1ccc(N2CCOCC2=O)cc1
solubility (mole fraction)
Conditions | in 1,4-dioxane | in THF | in ethanol | in ethyl acetate | in methanol | in n-propanol
278.15 K | 0.00411 | 0.00138 | 0.00127 | 0.000559 | 0.00172 | 0.000322
283.15 K | 0.00529 | 0.00182 | 0.00162 | 0.000794 | 0.00221 | 0.000404
288.15 K | 0.00665 | 0.00245 | 0.00208 | 0.0011 | 0.00285 | 0.000506
293.15 K | 0.0083 | 0.00323 | 0.0026 | 0.00149 | 0.00367 | 0.000649
298.15 K | 0.0102 | 0.00423 | 0.00321 | 0.00196 | 0.00463 | 0.000825
303.15 K | 0.0125 | 0.00542 | 0.00393 | 0.00257 | 0.00589 | 0.00105
308.15 K | 0.0149 | 0.00687 | 0.00475 | 0.00326 | 0.00751 | 0.00133
313.15 K | 0.0178 | 0.00865 | 0.00567 | 0.00412 | 0.00955 | 0.0017
318.15 K | 0.0209 | 0.0107 | 0.00672 | 0.00509 | 0.0121 | 0.00216
323.15 K | 0.0244 | 0.0132 | 0.00792 | 0.0062 | 0.0153 | 0.00274
328.15 K | 0.0282 | 0.0159 | 0.00928 | 0.00743 | 0.019 | 0.00348
333.15 K | 0.032 | 0.0191 | 0.0107 | 0.00873 | 0.0239 | 0.00443
